Measurements reported in patent US20240009271A1, “METHODS OF TREATING METASTATIC CANCERS USING AXL DECOY RECEPTORS” (Aravive Inc, priority 2017, published 2024).

System: MDA-MB-231 Axl+ TNBC cells
Assay: MDA-MB-231 Matrigel cell invasion assay
Type: cell-based
Conditions: Homo sapiens
Method: Inhibition of GAS6-induced invasion/migration was evaluated in models for triple-negative breast (MDA-MB-231) and ovarian (OVCAR8) cancers using the Corning® Matrigel® or collagen invasion assays, respectively, and using an AXL decoy receptor which comprises a soluble AXL variant polypeptide comprising amino acid changes relative to wild-type AXL sequence (SEQ ID NO:1) at the following positions: (a) glycine 32; (b) aspartic acid 87; (c) alanine 72; (d) valine 92; and (e) glycine 127, lacking the AXL transmembrane domain, lacking a functional FN domain, and comprising an Fc domain linked to the soluble AXL variant polypeptide by a peptide linker (hereinafter referred to as AVB-S6-500).
AVB-S6-500 and MDA-MB-231 Axl^+ TNBC cells in serum free media were seeded in the top of a Matrigel-coated Boyden Chamber. Media with serum as a chemo-attractant was added to the chamber bottom. After 24 hours incubation, the number of cells that migrated across the Matrigel were counted and expressed as the fraction of invasive cells relative to a PBS control (FIG. 1A).
Representative images from the AVB-S6-500 treated MDA-MB-231 cells are depicted in FIG. 2.

IC50: 0.024 µM
Structure (SMILES): COc1cc(Nc2c(C#N)cnc3cc(OCCCN4CCN(C)CC4)c(OC)cc23)c(Cl)cc1Cl [Bosutinib, bosutinib]
